Test results reported in patent EP0182271A2, “Nb-quaternary dibromo derivatives of ajmaline, isoajmaline, sandwicine and isosandwicine, pharmaceutical compositions containing them, intermediates and process for their preparation” (priority 1984, dated 1986).
Like-named read-outs stand apart in the source and are kept apart here.

Columns and labels:
[1] = Acute 7-day toxicity in mice after a single p.o. dose; parameters: species or system Maus; conditions: in vivo, po, mouse (male NMRI), 50 % mortality on day 7, probit analysis, read-out: Toxizität LD50
Source text: (§1) Beschreibung der pharmakologischen Versuchsmethoden: • 1. Bestimmung der akuten 7-Tage-Toxizität in Mausen. Die akute Toxizität der Wirkstoffe wird in männlichen NMRI-Mäusen (Körpergewicht 18-22 g) nach einmaliger p.o.-Applikation bestimmt. Die LD50 wird als die Dosis in uMol/kg definiert, welcher eine 50 % Mortalität der Tiere am 7. Tag nach der Applikation entspricht. Die LD50-Werte werden durch eine Probit-Analyse errechnet. • 2. Bestimmung der Hemmwirkung der Substanzen auf durch Aconitin-Infusion induzierte Herzrhythmusstörungen in Ratten.

[2] = tested on: durch Aconitin-Infusion induzierte Herzrhythmusstörungen; experiment: Inhibition of aconitine-infusion-induced cardiac arrhythmias in rats (method of Raschak); type: in vivo, Ratte; conditions: Rattus norvegicus, po, 3 h
Source text: as §1
Die Hemmwirkung auf durch Aconitin-Infusion in Ratten verursachte Herzrhythmusstörungcn (Extrasystolen (ES), ventrikuläre Tachykardie (VT) und Kammerflattern (KF)) werden nach der Methode von Raschak (Arzneimittelforsch. 25 (1975), 639-641) bestimmt.
Männliche Ratten mit einem Körpergewicht von 320-400 g werden durch i.p. Applikation von 1,25 g/kg Urethan narkotisiert. Die Tiere werden auf den Rücken gelegt und ihr Elektrokardiogramm wird während des Versuches alle 30 Sekunden gemessen. Den Tieren wird eine i.v. Aconitin-Infusion mit einer Infusionsgeschwindigkeit von 5 µg/kg/min Aconitin und einem Infusionsvolumen von 0,1 ml/min verabreicht. Drei Stunden vor Beginn der Aconitin-Infusion werden den Tieren die Testsubstanzen p.o. in einer Menge von 2 ml/kg Körpergewicht 2%-iger Tylose-Lösung verabreicht. Einer Kontrollgruppe wird nur die Tylose-Lösung verabreicht. Die Infusionsdauer bis zum Auftreten der verschiedenen Herzrhythmusstörungen wird bestimmt.
Antiarrhythmisch wirksame Testverbindungen führen zu einer Verzögerung des Auftretens der Aconitin-induzierten Herzrhythmusstörungen in den behandelten Tieren im Vergleich zu den Kontrolltieren. Aus dem Ausmaß der Verlängerung der Aconitininfusionsdauer und somit der Erhöhung der verabreichten Aconitinmenge, bis zu welcher die Tiere gegen die durch Aconitin induzierten Herzrhythmusstörungen geschützt sind, läßt sich auf die Stärke der antiarrhythmischen Wirksamkeit der Testsubstanzen schließen. Als ED150 wird die Dosis der Testsubstanzen bestimmt, bei welcher die jeweiligen Herzrhythmusstörungen erst nach der Verlängerung der Aconitinfusionsdauer auf 150 % auftreten.

[3] = tested on: ADP-induzierter Plättchenaggregation in PRP-K; experiment: Inhibition of ADP-induced platelet aggregation in platelet-rich rabbit plasma (PRP/K), method of Born; type: cell-based, Kaninchen; conditions: Oryctolagus cuniculus, 10-6 Mol/l ADP, read-out: % Hemmwirkung gegenüber ADP-induzierter Plättchenaggregation in PRP-K
Source text: 3. Bestimmung der Hemmwirkung auf durch ADP induzierte Blutplättchenaggregation im blutplättchenreichen Kaninchenblutplasma (PRP/K).
Die in-vitro-Bestimmung der antiaggregatorischen Wirkungen der Substanzen wurde nach der Methode von Born (Nature 194, 927 (1962)), modifiziert für Mikrobestimmungen nach Sim et al (Thromb. Res. 1, 655 (1975)) durchgeführt.
PRP/K wird durch Zentrifugieren von mit Antikoagulanz versetztem Kaninchenblut auf bekannte Weise erhalten. Als Kontrollwerte für die photometrische Bestimmung der Aggregationshemmung werden die optische Dichte des unbehandelten PRP/K (^ß0 % Aggregation) und von PRP/K, in welchem Blutplättchenaggregation durch Behandlung von 10-^6 Mol/1 ? ADP erzeugt wurde (100 % Aggregation), gemessen.
Zur Bestimmung der aggregationshemmmenden Wirkungen der Wirkstoffe werden Proben PRP/K mit einer bestimmten Wirkstoffdosis versetzt und dann mit 10-^6 Mol/1 ADP behandelt. Die Verringerung der optischen Dichte gegenüber der des unbehandelten PRP/K wird gemessen und mit der bei der Behandlung von wirkstoffreiem PRP/K mit 10-^6 Mol/l ADP aufgetretenen optischen Dichteverringerung verglichen. Hieraus wird die durch die eingesetzte Wirkstoffdosis entfaltete Hemmwirkung in % Hemmung der in wirkstoffreiem PRP/K verursachten Aggregation berechnet. Die in diesem Test mit Wirkstoffen der Formel I erhaltenen Ergebnisse werden in der nachstehenden Tabelle II wiedergegeben. Die folgenden Tabellen I und II geben nach den vorstehend beschriebenen Testmethoden erhaltene Ergebnisse wieder. Die für die Verbindungen der Formel I angegebenen Beispielsnummern beziehen sich auf die nachstehenden Herstellungsbeispiele.

[4] = read-out: Hemmwirkung gegenüber aconotininduzierten Herzrhythmusstörungen ED150 ES
[5] = read-out: Hemmwirkung gegenüber aconotininduzierten Herzrhythmusstörungen ED150 KF
[6] = read-out: Hemmwirkung gegenüber aconotininduzierten Herzrhythmusstörungen ED150 VT

| SMILES | LD50 at 168 h [1] [µmol/kg] | ED150 [2, 4] [µmol/kg] | ED150 [2, 5] [µmol/kg] | ED150 [2, 6] [µmol/kg] | inhibition at 100 µg/mL [3] [%] | inhibition at 50 µg/mL ([3]; dose 50 µg/ml) [%] |
| --- | --- | --- | --- | --- | --- | --- |
| CCC1C2CC3C4N(C)c5c(Br)cc(Br)cc5C45CC(C2C5O)[N+]3(CCC(C)C)C1O (stereo not shown) [Beispiel 2, Nb-(3-Methylbutyl)-10,12-dibromajmalinium-chlorid] | 277 | 9 | 11 | 6 | – | – |
| CCC1C2CC3C4N(C)c5c(Br)cc(Br)cc5C45CC(C2C5O)[N+]3(CCCN2CCOCC2)C1O (stereo not shown) [Beispiel 8, Nb-(3-Morpholinopropyl)-10,12-dibromisoajmalinium-chlorid] | – | – | – | – | 100 | – |
| CCC1C2CC3C4N(C)c5c(Br)cc(Br)cc5C45CC(C2C5O)[N+]3(C)C1O (stereo not shown) [Beispiel 12, Nb-Methyl-10,12-dibromisosandwicinium-hydrogenfumarat] | 2400 | 49 | 58 | 64 | 83 | – |
| CCC1C2CC3C4N(C)c5c(Br)cc(Br)cc5C45CC(C2C5O)[N+]3(C)C1O (stereo not shown) [Beispiel 16] | – | – | – | – | – | 81 |
| CCC1C2CC3C4N(C)c5c(Br)cc(Br)cc5C45CC(C2C5O)[N+]3(CCN2CCOCC2)C1O (stereo not shown) [Beispiel 62] | 379 | 11 | 13 | 11 | 100 | – |
